The text below walks through data of patent US10947213B1 (Merck Patent GmbH, priority 2015, dated 2021).

Molecules are shown by their SMILES. pIC50: −log10 of the molar value. Where a name gives a salt, the structure may show the parent alone. Some results are limits rather than exact numbers.

The assay has as its target T1, TLR7/NFKb HEK cells (Homo sapiens, UniProt Q9NYK1).
T1 construct: expressed in transfected cells; host or cells: HEK cells (TLR7/NFKb reporter line)
T1 sequence (Q9NYK1 27-1049): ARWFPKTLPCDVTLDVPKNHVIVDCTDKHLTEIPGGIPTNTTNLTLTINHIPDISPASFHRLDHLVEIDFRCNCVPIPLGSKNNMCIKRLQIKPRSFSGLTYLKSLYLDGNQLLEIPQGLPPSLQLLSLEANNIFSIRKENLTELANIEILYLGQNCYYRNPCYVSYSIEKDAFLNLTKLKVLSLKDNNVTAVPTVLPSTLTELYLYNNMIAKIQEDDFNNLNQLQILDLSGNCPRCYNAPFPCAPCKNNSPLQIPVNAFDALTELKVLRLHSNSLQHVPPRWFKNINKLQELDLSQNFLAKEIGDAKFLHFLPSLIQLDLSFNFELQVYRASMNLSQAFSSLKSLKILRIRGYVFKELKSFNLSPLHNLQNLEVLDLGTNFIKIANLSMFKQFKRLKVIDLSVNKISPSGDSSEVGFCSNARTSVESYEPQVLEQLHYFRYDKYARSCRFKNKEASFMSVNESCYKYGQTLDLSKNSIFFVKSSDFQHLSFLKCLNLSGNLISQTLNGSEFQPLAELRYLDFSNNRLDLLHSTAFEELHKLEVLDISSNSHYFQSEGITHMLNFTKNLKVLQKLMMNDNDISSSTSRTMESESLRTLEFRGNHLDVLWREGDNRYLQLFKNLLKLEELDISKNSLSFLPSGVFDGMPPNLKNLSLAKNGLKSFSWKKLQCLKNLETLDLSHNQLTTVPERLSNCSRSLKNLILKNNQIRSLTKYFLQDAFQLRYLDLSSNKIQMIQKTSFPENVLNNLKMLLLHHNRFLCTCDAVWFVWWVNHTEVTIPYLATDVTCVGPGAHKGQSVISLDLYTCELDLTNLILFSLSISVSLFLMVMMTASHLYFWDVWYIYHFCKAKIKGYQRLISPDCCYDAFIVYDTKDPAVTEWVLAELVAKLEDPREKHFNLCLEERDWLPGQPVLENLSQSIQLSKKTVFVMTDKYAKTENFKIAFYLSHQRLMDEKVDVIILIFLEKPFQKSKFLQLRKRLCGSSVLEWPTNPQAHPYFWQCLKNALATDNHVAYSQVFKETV
In words: HEK Cell Assay (TLR7/NFKb reporter, Steady-Glo luciferase readout). The format is cell-based. Particulars: 30 min compound preincubation, then R*48 agonist for 5 hours, read-out: Potency. An outline of the steps: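 Steady-Glo luminescence after 5 h stimulation with R*48 agonist, following 30 min compound preincubation. Assay run in HEK cells carrying a TLR7/NFKb luciferase reporter, plated at 5000 cells/well and grown 24 h at 37° C (10% CO2) before treatment.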
Take `C[C@H]1C[C@@H](NC(=O)[C@@H](N)c2ccccc2)CN(c2ccc(C#N)c3nccnc23)C1` [Compound 117, (2S)-2-amino-N-[(3R,5S)-1-(8-cyanoquinoxalin-5-yl)-5-methylpiperidin-3-yl]-2-phenylacetamide]: the pIC50 was more than 6.00.

Consider `CC(C)(O)CC(=O)N[C@@H]1C[C@H](C(F)(F)F)CN(c2ccc(C#N)c3ncccc23)C1` (racemic) [Compound 481], for which the pIC50 was 5.00 to 6.00. For the compound `COc1ccc(N2C[C@@H](C)C[C@@H](NC(=O)C(N)C(F)(F)F)C2)c2cccnc12` (single isomer, unassigned) [Compound 192], the pIC50 is 5.00 to 6.00. In the case of `CN1CCN(CC(=O)N[C@H]2C[C@@H](C(F)(F)F)CN(c3ccc(C#N)c4nccnc34)C2)CC1` (relative stereo) [Compound 229, cis-N-[1-(8-cyanoquinoxalin-5-yl)-5-(trifluoromethyl)piperidin-3-yl]-2-(4-methylpiperazin-1-yl)acetamide], the pIC50 is more than 6.00. For `CCN1CCC(NC(=O)C2CC(C)CN(c3ccc(C#N)c4nccnc34)C2)CC1` (centres unmarked) [Compound 540, 1-(8-Cyano-quinoxalin-5-yl)-5-methyl-piperidine-3-carboxylic acid (1-ethyl-piperidin-4-yl)-amide], the pIC50 was more than 6.00. For `N#Cc1ccc(N2CCC(F)C(N)C2)c2nccnc12` (centres unmarked) [Compound 524, 8-(3-Amino-4-fluoro-piperidin-1-yl)-quinoxaline-5-carbonitrile hydrochloride] the value was 5.00 to 6.00; for `C[C@H]1C[C@@H](NC(=O)CC(F)(F)F)CN(c2ccc(C#N)c3nccnc23)C1` [Compound 111, N-[(3R,5S)-1-(8-cyanoquinoxalin-5-yl)-5-methylpiperidin-3-yl]-3,3,3-trifluoropropanamide], more than 6.00; for `Cc1ccc(N2C[C@@H](C)C[C@@H](N)C2)c2cccnc12` [Compound 462, (3R,5S)-5-Methyl-1-(8-methyl-quinolin-5-yl)-piperidin-3-ylamine hydrochloride], more than 6.00.

For `COCCN[C@@H]1C[C@H](C)CN(c2ccc(OC)c3nccnc23)C1` [Compound 67, (3R,5S)—N-(2-methoxyethyl)-1-(8-methoxyquinoxalin-5-yl)-5-methylpiperidin-3-amine], the pIC50 is more than 6.00. Consider `CNC(=O)CCC(=O)NC1CC(C(F)(F)F)CN(c2ccc(C#N)c3ncccc23)C1` (racemic) [Compound 492, cis-(N-1-(8-Cyano-quinolin-5-yl)-5-trifluoromethyl-piperidin-3-yl]-N′-methyl-succinamide)], for which the pIC50 is 5.00 to 6.00.

On to `Cc1ncc(N2C[C@@H](C)C[C@@H](NC(=O)CC3CCN(C)C3)C2)c2cccnc12` (stereo partly drawn) [Compound 560, N-[(3R,5S)-5-Methyl-1-(8-methyl-[1,7]naphthyridin-5-yl)-piperidin-3-yl]-2-(1-methyl-pyrrolidin-3-yl)-acetamide], for which the pIC50 was more than 6.00. The figure for `C[C@H]1C[C@@H](NC(=O)CN2CC(N)C2)CN(c2ccc(C(F)F)c3ncccc23)C1` [Compound 304, 2-(3-aminoazetidin-1-yl)-N-[(3R,5S)-1-[8-(difluoromethyl)quinolin-5-yl]-5-methylpiperidin-3-yl]acetamide] is more than 6.00. The figure for `CCCN1CCN(C[C@H]2CN(c3ccnc4nccnc34)C[C@@H](C)O2)CC1` [Compound 52, (2R,6S)-2-methyl-6-((4-propylpiperazin-1-yl)methyl)-4-(pyrido[2,3-b]pyrazin-8-yl)morpholine] is more than 6.00; for `C[C@@H]1CN(c2ncc(F)c3nccnc23)C[C@H](C)O1` [Compound 455, cis-5-(2,6-Dimethyl-morpholin-4-yl)-8-fluoro-pyrido[3,4-b]pyrazine] it is less than 5.00. `COc1ccc(N2C[C@@H](C)C[C@@H](N)C2)c2cccnc12` [Compound 187, (3R,5S)-1-(8-methoxyquinolin-5-yl)-5-methylpiperidin-3-amine]: the pIC50 was more than 6.00. As for `CC(C)[C@@H](O)C(=O)N[C@@H]1C[C@H](C)CN(c2ccc(C#N)c3nccnc23)C1` [Compound 21, (R)—N-((3R,5S)-1-(8-cyanoquinoxalin-5-yl)-5-methylpiperidin-3-yl)-2-hydroxy-3-methylbutanamide], the pIC50 is more than 6.00. On to `C[C@H]1C[C@@H](NC(=O)CC2CC2(F)F)CN(c2ccc(C#N)c3nccnc23)C1` (stereo partly drawn) [Compound 272, N-[(3R,5S)-1-(8-cyanoquinoxalin-5-yl)-5-methylpiperidin-3-yl]-2-(2,2-difluorocyclopropyl)acetamide], for which the pIC50 was more than 6.00.

Regarding `CC(O)C(=O)N[C@@H]1C[C@H](C)CN(c2ccc(C(F)(F)F)c3nccnc23)C1` (stereo partly drawn) [Compound 292, 2-hydroxy-N-[(3R,5S)-5-methyl-1-[8-(trifluoromethyl)quinoxalin-5-yl]piperidin-3-yl]propanamide], the pIC50 is 5.00 to 6.00.

Regarding `C[C@H]1C[C@@H](NC(=O)NC2CC2)CN(c2ccc(C(F)(F)F)c3ncccc23)C1` [Compound 518, 1-Cyclopropyl-3-[(3R,5S)-5-methyl-1-(8-trifluoromethyl-quinolin-5-yl)-piperidin-3-yl]-urea], the pIC50 is more than 6.00.

Regarding `C[C@H]1C[C@@H](NC(=O)CC(C)(C)CN)CN(c2ccc(C(F)(F)F)c3ncccc23)C1` [Compound 291, 4-amino-3,3-dimethyl-N-[(3R,5S)-5-methyl-1-[8-(trifluoromethyl)quinolin-5-yl]piperidin-3-yl]butanamide], the pIC50 is more than 6.00.

On to `C[C@H]1C[C@@H](NC(=O)[C@@H](C)N)CN(c2ccc(C#N)c3nccnc23)C1` [Compound 24, (R)-2-amino-N-((3R,5S)-1-(8-cyanoquinoxalin-5-yl)-5-methylpiperidin-3-yl)propanamide], for which the pIC50 was more than 6.00. Regarding `CC1CC(N)CN(c2ccc(F)c3nccnc23)C1` (single isomer, unassigned) [Compound 340], the pIC50 was 5.00 to 6.00. The figure for `C[C@H]1C[C@@H](N)CN(c2c(F)cc(C#N)c3nccnc23)C1` [Compound 342, 8-[(3R,5S)-3-amino-5-methylpiperidin-1-yl]-7-fluoroquinoxaline-5-carbonitrile] is 5.00 to 6.00; for `N#Cc1ccc(N2CCC(C(=O)NC3CCN(CC4CC4)C3)CC2)c2cccnc12` (centres unmarked) [Compound 434, 1-(8-Cyano-quinolin-5-yl)-piperidine-4-carboxylic Acid (1-cyclopropylmethyl-pyrrolidin-3-yl)-amide] it is more than 6.00; for `CC(O)C(=O)N[C@@H]1C[C@H](C)CN(c2ccc(C(F)F)c3nccnc23)C1` (stereo partly drawn) [Compound 79, N-[(3R,5S)-1-[8-(difluoromethyl)quinoxalin-5-yl]-5-methylpiperidin-3-yl]-2-hydroxypropanamide] it is 5.00 to 6.00. In the case of `C[C@H]1C[C@@H](NC2CCN(C)C2=O)CN(c2ccc(C(F)(F)F)c3ncccc23)C1` (single isomer, unassigned) [Compound 238], the pIC50 is more than 6.00.

On to `C[C@H]1C[C@@H](NC(=O)C(N)C(F)(F)F)CN(c2ccc(C(F)(F)F)c3ncccc23)C1` (single isomer, unassigned) [Compound 197], for which the pIC50 was 5.00 to 6.00. With `C[C@H]1C[C@@H](NC(=O)C(N)C(F)(F)F)CN(c2ccc(C(F)(F)F)c3ncccc23)C1` (single isomer, unassigned) [Compound 198], the pIC50 is more than 6.00. Regarding `C[C@H]1C[C@@H](NC(=O)C2CCN(C3CC3)CC2)CN(c2ccc(C(F)(F)F)c3ncccc23)C1` [Compound 574, 1-Cyclopropyl-piperidine-4-carboxylic acid [(3R,5S)-5-methyl-1-(8-trifluoromethyl-quinolin-5-yl)-piperidin-3-yl]-amide], the pIC50 was more than 6.00. For `C[C@H]1C[C@@H](NC(=O)C2CCN(C)C2)CN(c2ccc(C(F)(F)F)c3nccnc23)C1` (stereo partly drawn) [Compound 258, 1-methyl-N-[(3R,5S)-5-methyl-1-[8-(trifluoromethyl)quinoxalin-5-yl]piperidin-3-yl]pyrrolidine-3-carboxamide] the value was more than 6.00; for `Cc1ccc(N2C[C@@H](C)C[C@@H](NC(=O)CN3CCOCC3)C2)c2cccnc12` [Compound 466, N-[(3R,5S)-5-Methyl-1-(8-methyl-quinolin-5-yl)-piperidin-3-yl]-2-morpholin-4-yl-acetamide], 5.00 to 6.00; for `Cc1ncc(N2C[C@@H](C)C[C@@H](NC(=O)[C@@H](O)C3CC3)C2)c2cccnc12` [Compound 559, (S)-2-Cyclopropyl-2-hydroxy-N-[(3R,5S)-5-methyl-1-(8-methyl-[1,7]naphthyridin-5-yl)-piperidin-3-yl]-acetamide], 5.00 to 6.00.
